According to patent US20240239790A1, “7-Morpholino-1,6-Naphthyridin-5-yl Derivatives and Pharmaceutical Compositions Thereof Useful as DNA-PK Inhibitor” (adMare Therapeutics Society, priority 2021, published 2024):
pEC50, pIC50: −log10 of the molar value. Like-named read-outs stand apart in the source and are kept apart here.

Columns and labels:
[1] = molecular target: T1, DNA-PK phosphorylation at Serine 2056 (Homo sapiens, UniProt P78527); experiment: Cellular Assay for Inhibition of DNA-PK Phosphorylation at Serine 2056 in FaDu cells (sandwich ELISA, neocarzinostatin); format: cell-based; conditions: pSer2056 DNA-PK, Table 3
T1 construct: FaDu cells were purchased from ATCC; host or cells: FaDu
Outline: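 FaDu cells pre-treated with compound (0.3% DMSO) for 1 h, then neocarzinostatin 1 μg/mL final added for 2 h to induce DSBs. Protein-normalised lysates read by sandwich ELISA for total and pSer2056 DNA-PK; % inhibition normalised between DMSO and NCS controls, IC50 from variable-slope log(inhibitor) fit.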

[2] = test system: pH2AX induction in HCT116 ATM-/- multicellular tumour spheroids; experiment: Prodrug Radiation Sensitization in Multicellular Tumour Spheroids, inhibition of pH2AX induction following radiation; format: cell-based; conditions: Homo sapiens, HCT-116, 20 Gy
Outline: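 HCT116 and FaDu spheroids (~0.5 mm diameter), ATM-deficient lines included, in MEM/10% FBS/10 mM glucose at 37 °C under 20% vs 5% oxygen with stirring. Prodrugs 10 μM down to 3.5 nM, 20 Gy irradiation. pDNA-PK (ser 2056) or pH2AX (ser 139) scored in formalin-fixed cryosections 1 or 2 h post-radiation.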

FaDu cell line = experiment: Prodrug Activation in Hypoxic Stirred Tumour Cell Suspensions; conditions: 10 μM, 4 hours
Description: Prodrug compounds were assayed to determine their stability and rate of activation in stirred cell suspensions under 0.2 vs 5% oxygen. Compounds were diluted 1:1000 from DMSO stocks to 10 μM final concentration in tumour cell suspensions (1% by cell volume) in MEM media containing 10% FBS, 10 mM glucose & 3.7 g/L sodium bicarbonate. Cell lines assayed included A253, A549, Detroit562, FaDu, HCT116, HEP G2, HT29, SCC25, SCC9, SiHa & TC32. Compounds and cells were then incubated for 4 hours under constant mixing at 37° C. under 5% CO2 and either 0.2 or 5% O2. Following the incubation period cellular activation of the compounds was assayed via MeOH extraction and HPLC quantification.

[3] = 5% O2, inner layers, read-out: Prodrug 5% O2 Inner layers EC50
[4] = 5% O2, outer layers, read-out: Prodrug 5% O2 Outer layers EC50
[5] = 20% O2, outer layers, read-out: Prodrug 20% O2 Outer layers EC50

Row | Structure (SMILES) | pIC50 [1] | pEC50 [2, 3] | pEC50 [2, 4] | pEC50 [2, 5] | Fraction of prodrug converted to active form, Hypoxic 0.2% O2 (FaDu cell line) | Fraction of prodrug converted to active form, Oxic 5% O2 (FaDu cell line)
1 | CC(c1cnn(C)c1[N+](=O)[O-])N(c1cnc2cc(N3CCOCC3)nc(O[C@H]3CC[C@@H](Nc4ncc(OCCN5CCOCC5)cn4)CC3)c2c1)S(C)(=O)=O (stereo partly drawn) [LFA2077, N-[1-(1-methyl-5-nitro-pyrazol-4-yl)ethyl]-N-[7-morpholino-5-[4-[[5-(2-morpholinoethoxy)pyrimidin-2-yl]amino]cyclohexoxy]-1,6-naphthyridin-3-yl]methanesulfonamide] | 5.00 to 6.00 | 6.30 to 8.00 | 6.00 to 6.30 | 6.30 to 8.00 | B (B is 0.05 to 0.15) | B (B is 0.05 to 0.15)
2 | Cn1c(COc2cnc3cc(N4CCOCC4)nc(O[C@H]4CC[C@@H](Nc5ncc(OCCN6CCOCC6)cn5)CC4)c3c2)cnc1[N+](=O)[O-] [LFA2069, N-[4-[[3-[(3-methyl-2-nitro-imidazol-4-yl)methoxy]-7-morpholino-1,6-naphthyridin-5-yl]oxy]cyclohexyl]-5-(2-morpholinoethoxy)pyrimidin-2-amine] | 4.52 to 5.00 | 6.30 to 8.00 | 5.00 to 6.00 | 5.00 to 6.00 | A (A is 0.15 to 1) | C (C is 0.02 to 0.05)
3 | Cn1ncc(CN(c2cnc3cc(N4CCOCC4)nc(O[C@H]4CC[C@@H](Nc5ncccn5)CC4)c3c2)S(C)(=O)=O)c1[N+](=O)[O-] [LFA2057, N-[(1-methyl-5-nitro-pyrazol-4-yl)methyl]-N-[7-morpholino-5-[4-(pyrimidin-2-ylamino)cyclohexoxy]-1,6-naphthyridin-3-yl]methanesulfonamide] | 5.00 to 6.00 | 6.30 to 8.00 | 6.30 to 8.00 | 5.00 to 6.00 | A (A is 0.15 to 1) | B (B is 0.05 to 0.15)
4 | Cc1ccc(N[C@H]2CC[C@@H](Oc3nc(N4CCOCC4)cc4ncc(OC(C)c5cnc([N+](=O)[O-])n5C)cc34)CC2)nc1 (stereo partly drawn) [LFA2105, 5-methyl-N-[4-[[3-[1-(3-methyl-2-nitro-imidazol-4-yl)ethoxy]-7-morpholino-1,6-naphthyridin-5-yl]oxy]cyclohexyl]pyridin-2-amine] | 4.52 to 5.00 | 5.00 to 6.00 | 5.00 to 6.00 | 4.00 to 5.00 | A (A is 0.15 to 1) | D (D is 0 to 0.02)
5 | COc1cccnc1N[C@H]1CC[C@@H](Oc2nc(N3CCOCC3)cc3ncc(N(Cc4cnc([N+](=O)[O-])n4C)S(C)(=O)=O)cc23)CC1 [LFA2009, N-[5-[4-[(3-methoxy-2-pyridyl)amino]cyclohexoxy]-7-morpholino-1,6-naphthyridin-3-yl]-N-[(3-methyl-2-nitro-imidazol-4-yl)methyl]methanesulfonamide] | 4.52 to 5.00 | 5.00 to 6.00 | 5.00 to 6.00 | 5.00 to 6.00 | B (B is 0.05 to 0.15) | C (C is 0.02 to 0.05)
6 | CC(c1cnc([N+](=O)[O-])n1C)N(c1cnc2cc(N3CCOCC3)nc(OC3CCC(c4cnccn4)CC3)c2c1)S(C)(=O)=O (stereo not drawn) [LFA2043, N-[1-(3-methyl-2-nitro-imidazol-4-yl)ethyl]-N-[7-morpholino-5-(4-pyrazin-2-ylcyclohexoxy)-1,6-naphthyridin-3-yl]methanesulfonamide] | 5.00 to 6.00 | 6.30 to 8.00 | 6.00 to 6.30 | 5.00 to 6.00 | B (B is 0.05 to 0.15) | D (D is 0 to 0.02)
7 | CC(Oc1cnc2cc(N3CCOCC3)nc(O[C@H]3CC[C@@H](Nc4ncc(OCCN(C)C)cn4)CC3)c2c1)c1cnc([N+](=O)[O-])n1C (stereo partly drawn) [LFA2087, 5-[2-(dimethylamino)ethoxy]-N-[4-[[3-[1-(3-methyl-2-nitro-imidazol-4-yl)ethoxy]-7-morpholino-1,6-naphthyridin-5-yl]oxy]cyclohexyl]pyrimidin-2-amine] | 5.00 to 6.00 | 5.00 to 6.00 | 5.00 to 6.00 | 5.00 to 6.00 | A (A is 0.15 to 1) | D (D is 0 to 0.02)
8 | Cn1c(CN(c2cnc3cc(N4CCOCC4)nc(O[C@H]4CC[C@@H](Nc5cncc(C(F)(F)F)n5)CC4)c3c2)S(C)(=O)=O)cnc1[N+](=O)[O-] [LFA2101, N-[(3-methyl-2-nitro-imidazol-4-yl)methyl]-N-[7-morpholino-5-[4-[[6-(trifluoromethyl)pyrazin-2-yl]amino]cyclohexoxy]-1,6-naphthyridin-3-yl]methanesulfonamide] | 4.52 to 5.00 | 4.00 to 5.00 | 4.00 to 5.00 | 4.00 to 5.00 | C (C is 0.02 to 0.05) | D (D is 0 to 0.02)
9 | CC(c1cnn(C)c1[N+](=O)[O-])N(c1cnc2cc(N3CCOCC3)nc(O[C@H]3CC[C@@H](Nc4ncc(OC5CCN(C)C5)cn4)CC3)c2c1)S(C)(=O)=O (stereo partly drawn) [LFA2064, N-[1-(1-methyl-5-nitro-pyrazol-4-yl)ethyl]-N-[5-[4-[[5-(1-methylpyrrolidin-3-yl)oxypyrimidin-2-yl]amino]cyclohexoxy]-7-morpholino-1,6-naphthyridin-3-yl]methanesulfonamide] | 5.00 to 6.00 | 6.30 to 8.00 | 5.00 to 6.00 | 5.00 to 6.00 | B (B is 0.05 to 0.15) | C (C is 0.02 to 0.05)
10 | CC(Oc1cnc2cc(N3CCOCC3)nc(O[C@H]3CC[C@@H](Nc4ncc(OCCN5CCOCC5)cn4)CC3)c2c1)c1cnc([N+](=O)[O-])n1C (stereo partly drawn) [LFA2049, N-[4-[[3-[1-(3-methyl-2-nitro-imidazol-4-yl)ethoxy]-7-morpholino-1,6-naphthyridin-5-yl]oxy]cyclohexyl]-5-(2-morpholinoethoxy)pyrimidin-2-amine] | 6.00 to 7.00 | 6.30 to 8.00 | 6.00 to 6.30 | 5.00 to 6.00 | A (A is 0.15 to 1) | B (B is 0.05 to 0.15)
11 | Cc1cc(C#N)nc(N[C@H]2CC[C@@H](Oc3nc(N4CCOCC4)cc4ncc(OC(C)c5cnc([N+](=O)[O-])n5C)cc34)CC2)n1 (stereo partly drawn) [LFA2094, 6-methyl-2-[[4-[[3-[1-(3-methyl-2-nitro-imidazol-4-yl)ethoxy]-7-morpholino-1,6-naphthyridin-5-yl]oxy]cyclohexyl]amino]pyrimidine-4-carbonitrile] | 4.52 to 5.00 | 6.00 to 6.30 | 5.00 to 6.00 | 4.00 to 5.00 | B (B is 0.05 to 0.15) | B (B is 0.05 to 0.15)
12 | CC(c1cnc([N+](=O)[O-])n1C)N(c1cnc2cc(N3CCOCC3)nc(O[C@H]3CC[C@@H](Nc4ncc(CN5CCOCC5)cn4)CC3)c2c1)S(C)(=O)=O (stereo partly drawn) [LFA2053, N-[1-(3-methyl-2-nitro-imidazol-4-yl)ethyl]-N-[7-morpholino-5-[4-[[5-(morpholinomethyl)pyrimidin-2-yl]amino]cyclohexoxy]-1,6-naphthyridin-3-yl]methanesulfonamide] | 4.52 to 5.00 | 6.30 to 8.00 | 6.00 to 6.30 | 5.00 to 6.00 | B (B is 0.05 to 0.15) | D (D is 0 to 0.02)
13 | Cc1nc(N[C@H]2CC[C@@H](Oc3nc(N4CCOCC4)cc4ncc(N(Cc5cnc([N+](=O)[O-])n5C)S(C)(=O)=O)cc34)CC2)ccc1F [LFA2011, N-[5-[4-[(5-fluoro-6-methyl-2-pyridyl)amino]cyclohexoxy]-7-morpholino-1,6-naphthyridin-3-yl]-N-[(3-methyl-2-nitro-imidazol-4-yl)methyl]methanesulfonamide] | 4.52 to 5.00 | 5.00 to 6.00 | 5.00 to 6.00 | 5.00 to 6.00 | C (C is 0.02 to 0.05) | D (D is 0 to 0.02)
14 | CC(c1cnn(C)c1[N+](=O)[O-])N(c1cnc2cc(N3CCOCC3)nc(O[C@H]3CC[C@@H](Nc4ncccn4)CC3)c2c1)S(C)(=O)=O (stereo partly drawn) [LFA2056, N-[1-(1-methyl-5-nitro-pyrazol-4-yl)ethyl]-N-[7-morpholino-5-[4-(pyrimidin-2-ylamino)cyclohexoxy]-1,6-naphthyridin-3-yl]methanesulfonamide] | 5.00 to 6.00 | 6.30 to 8.00 | 6.30 to 8.00 | 5.00 to 6.00 | C (C is 0.02 to 0.05) | C (C is 0.02 to 0.05)
15 | CN(C)CCOc1cnc(N[C@H]2CC[C@@H](Oc3nc(N4CCOCC4)cc4ncc(OCc5cnc([N+](=O)[O-])n5C)cc34)CC2)nc1 [LFA2088, 5-[2-(dimethylamino)ethoxy]-N-[4-[[3-[(3-methyl-2-nitro-imidazol-4-yl)methoxy]-7-morpholino-1,6-naphthyridin-5-yl]oxy]cyclohexyl]pyrimidin-2-amine] | 5.00 to 6.00 | 5.00 to 6.00 | 5.00 to 6.00 | 5.00 to 6.00 | B (B is 0.05 to 0.15) | D (D is 0 to 0.02)
